We go through one compound from publication PMC6261997, “Synergistic enzymatic and bioorthogonal reactions for selective prodrug activation in living systems” (Nature Communications, 2018).

One data set deals with HeLa tumours. Briefly: Tumour inhibition test, subcutaneous HeLa xenograft. The data set is classed as in vivo, BALB/c nude mice. The protocol: All animal studies were performed in accordance with the Institutional Animal Use and Care Regulations approved by the National Institutes of Health Clinical Center/Animal Care and Use Committee (NIH CC/ACUC). Athymic female nude mice (5–6 weeks old) were purchased from Beijing Huafukang Bioscience Co., Ltd., and raised in a specific-pathogen-free barrier facility. Tumour-bearing mice were established by subcutaneously injecting a suspension of 10^6 HeLa cells per mouse into the front flank of each nude mouse.
After 14 days, the mice were sacrificed.

A short description of data set [1]: MTT cell viability / cytotoxicity assay, HeLa cells. It is filed as cell-based. Particulars: human; 500 μM 2, 24 h, MTT. The protocol:
(§1) Cells were plated in flat-bottom 96-well plates at a density of 3 × 10^3 cells per well. After 12 h of cell attachment, the cell culture medium was replaced with 100 μL of pre-warmed media containing the compounds at different concentrations. After 24–72 h of incubation, cell proliferation was assessed by the MTT assay. A fresh mixture of 10 μL of thiazolyl blue tetrazolium bromide (MTT) and 90 μL of medium were freshly added to each well. After incubation for 4 h, the medium was gently removed. The formazan crystals that formed were dissolved in 110 μL of DMSO, and the absorbance was subsequently measured with a plate reader (Perkin Elmer) at 490 nm. EC50 values were calculated using Origin software. To measure the cytotoxicity of 2, HeLa cells, HUVECs, Saos-2 cells and CCC-HEH-2 cells were incubated with 100 μL of 1–500 μM 2 for 24 h, and then, cell viability was determined. To measure the cytotoxicity of TCO-Dox or Dox, HeLa cells, HUVECs, Saos-2 cells or CCC-HEH-2 cells were incubated with 200 μL of 0.001–10 μM TCO-Dox or Dox for 72 h, and the cell viability was determined. To determine the cytotoxicity of activated Dox, HeLa cells, HUVECs, […], and then, 2 was removed and 200 μL of 0.0001–10 μM TCO-Dox was added for 72 h of incubation, and cell viability was determined. […]
(§2) Prodrug activation efficacy in cells: Cells were plated on flat bottom 96-well plates at a
(§3) density of 3x10^3 cells per well. After 12 h attachment, cells were incubated with 100 µL
(§4) 500 µM of 2 for 6 h before removing 2 and the addition of 200 µL 0.0001-10 µM of […]

The next data set deals with HeLa cells. Briefly: Intracellular Tz accumulation by fluorescence liberation from TCO-CMR, HeLa cells. The data set is classed as cell-based. The protocol:
Next, we tested the intracellular accumulation of Tz via EISA in an attempt to differentiate cancer cells from normal cells. First, we investigated the accumulation of Tz in HeLa cells and HUVECs over time via fluorescence liberation from TCO-CMR (Fig. 3a). […] The cells were then washed with PBS thoroughly before the addition of an excessive amount of TCO-CMR (100 μL, 50 μM), and the reaction of TCO-CMR with the intracellular accumulated Tz was allowed to proceed for up to 24 h (Supplementary Fig. 8). In this experimental setting, the total liberated fluorescence was proportional to the amount of 3 accumulated inside the cells. […] Therefore, the optimized concentration of 2 (e.g. 500 μM) and incubation time (e.g. 6 h) were selected to differentiate between cancer and normal cells according to liberated fluorescence intensity (Fig. 3c). This differentiation was dependent on the considerably different phosphatase activity between these cell lines (Supplementary Fig. 11), allowing EISA to specifically occur in cancer cells as opposed to normal cells.
All cells were purchased from the National Infrastructure of Cell Line Resource (Beijing, China). HeLa cells, HUVECs and CCC-HEH-2 cells were cultured in a humidified CO2 (5%) incubator at 37 °C in DMEM supplemented with 10% foetal bovine serum (FBS, Gibco) and 1% Pen Strep (PS, Gibco). Saos-2 cells were cultured in a humidified CO2 (5%) incubator at 37 °C in McCoy’s 5A medium supplemented with 10% FBS and 1% PS. Cells were plated in flat-bottom 96-well plates (Corning) at a density of 10^4 cells per well and allowed to attach for 12 h. Then, the culture medium was replaced with 100 μL of pre-warmed medium containing 2 at different concentrations (100–500 μM). After incubation for different durations (1–24 h), the cells were rinsed with PBS, and then 100 μL of 50 μM TCO-CMR (dissolved in PBS) was added for real-time detection of the fluorescence intensity of coumarin in a plate reader (Perkin Elmer).

Data set [2] in a line: MTT cell viability / cytotoxicity assay, HUVECs. The data set is classed as cell-based. Particulars: human; 500 μM 2, 24 h, MTT. On the procedure:
as §1, §2, §3, §4

Data set [3] can be described thus: Self-assembly and hydrogelation on addition of alkaline phosphatase (ALP). It is filed as physicochemical. The protocol: The synthesis of the assembly precursor (NapK(Tz)YpF, 2, Fig. 2a) was straightforward (see Supplementary Methods for a detailed protocol). Because KYF was determined to be an excellent self-assembly motif in a tri-peptide census survey, we constructed our assembling molecules based on this sequence. The conjugation of a strong π–π stacking moiety, namely, a naphthalene group, to the N terminus may further enhance the self-assembly potential of this molecule. Phosphorylation on tyrosine (Y) enabled the responsiveness of this motif to phosphatase. All of these components were sequentially conjugated via typical Fmoc-based solid-phase peptide synthesis (SPPS) to yield NapKYpF (1). The capability of self-assembly and hydrogelation of 1 was confirmed by the addition of 10 U mL^−1 alkaline phosphatase (ALP) into a solution of 1 (Supplementary Fig. 1). The dephosphorylated product of 1 formed transparent hydrogels with a network of uniform nanofibres (Supplementary Fig. 2), and the critical hydrogelation concentration was 1.0 mg mL^−1. The ε-amine of Lys on 1 was conjugated with the Tz derivative Tz-COOH (2-(4-(6-methyl-1,2,4,5-tetrazin-3-yl)phenyl) acetic acid) via an NHS-mediated ester–amide exchange reaction to yield 2. […] Upon the addition of ALP (10 U mL^−1) into the solution of 2, a transparent purple hydrogel was formed within 1 h (Fig. 2b inset), and the critical hydrogelation concentration was 1.0 mg mL^−1 (Supplementary Fig. 3). Similar to the formation of a typical hydrogel, investigation by transmission electron microscopy (TEM) confirmed the existence of numerous uniform nanofibres, each with a diameter of approximately 12 nm, which was close to that of hydrogel 1 (Fig. 2b).

In general, viability refers to the share of living cells, or the viability signal relative to a control. In the case of `Cc1nnc(-c2ccc(CC(=O)NCCCCC(NC(=O)Cc3ccc4ccccc4c3)C(=O)NC(Cc3ccc(OP(=O)(O)O)cc3)C(=O)NC(Cc3ccccc3)C(=O)O)cc2)nn1` (centres unmarked) [compound 2, NapK(Tz)YpF], the “histological examination of dissected tumours (HE staining)” value in the data set with HeLa tumours (after treatment for 14 days) is recorded as “the HeLa cells remained normal”. Besides, the tumour growth entry in the data set with HeLa tumours (i.v., three courses (day 0, 3, 6), 50 mg kg^−1 2, 30 mg kg^−1 TCO-Dox, 5 mg kg^−1 Dox, or 50 mg kg^−1 2 then 30 mg kg^−1 TCO-Dox after 2 h) is on record as “rapid growth similar to that observed in the saline control group”. Besides, the viability at 24 h, 500 μM in data set [1] and in data set [2] was > 85% in each case. Besides, in the data set with HeLa cells (500 μM 2, then 50 μM TCO-CMR), the “incubation time at which liberated fluorescence reaches maximum value” was “approximately 6 h”. The “fluorescence emission of liberated coumarin in HeLa cells” value in the data set on HeLa cells (pre-incubated with 400 or 500 μM 2) was “increased significantly”. Further, the “time to formation of hydrogel” value in data set [3] (ALP 10 U mL^−1) is listed as ≤ 1 h. This compound had a critical hydrogelation concentration in data set [3] (after addition of 10 U mL^−1 ALP (dephosphorylated product)) of 1.0 mg/mL.
